Patent US20260062443A1 (ALEXION PHARMACEUTICALS, INC., priority 2022, published 2026)

Target: T1, Human complement C1s enzyme (Homo sapiens, UniProt P09871)
T1 sequence (P09871 438-688 limits assumed): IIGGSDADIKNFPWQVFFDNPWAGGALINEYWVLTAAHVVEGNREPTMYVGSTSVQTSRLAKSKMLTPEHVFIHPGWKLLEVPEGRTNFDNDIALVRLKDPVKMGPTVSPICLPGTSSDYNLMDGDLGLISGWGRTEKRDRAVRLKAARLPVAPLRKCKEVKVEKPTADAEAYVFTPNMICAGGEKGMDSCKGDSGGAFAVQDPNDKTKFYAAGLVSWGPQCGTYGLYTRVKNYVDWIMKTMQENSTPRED
T1 sequence (P09871 16-437 partner limits assumed): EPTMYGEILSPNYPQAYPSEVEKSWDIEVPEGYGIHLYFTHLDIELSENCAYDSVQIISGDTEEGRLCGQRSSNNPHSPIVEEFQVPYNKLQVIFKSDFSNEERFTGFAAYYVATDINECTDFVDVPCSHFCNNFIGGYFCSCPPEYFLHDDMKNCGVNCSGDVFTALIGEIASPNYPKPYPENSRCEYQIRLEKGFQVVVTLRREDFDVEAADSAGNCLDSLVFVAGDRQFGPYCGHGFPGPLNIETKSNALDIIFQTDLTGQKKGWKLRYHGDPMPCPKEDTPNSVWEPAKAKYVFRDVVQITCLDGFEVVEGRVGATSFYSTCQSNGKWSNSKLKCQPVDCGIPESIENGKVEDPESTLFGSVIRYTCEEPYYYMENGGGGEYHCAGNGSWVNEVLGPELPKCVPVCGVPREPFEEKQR
Assay: Human C1s enzyme assay
Assay type: biochemical
Conditions: human complement C1s enzyme 1.16 nM, substrate Z-L-Lys-SBzl 100 μM, 5 min preincubation; read-out: IC50 (Stars), C1s Inhibiting Activity
Procedure, shortened: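 IC50 from nonlinear regression of reaction rates versus compound concentration, with rates taken from A405 recorded at 30 s intervals over 30 min after adding 100 μM Z-L-Lys-SBzl plus 100 μM DTNB. Enzyme was human C1s purified from serum, 1.16 nM, given 5 min compound preincubation at room temperature, pH 7.5 Tris/1 M NaCl.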

| SMILES | IC50 |
| --- | --- |
| COC[C@@]1(F)C[C@@H](C(=O)NCc2cc3cnccc3[nH]2)N(C(=O)CNC(=O)c2ccc3oc4ccccc4c3c2)C1 [Compound 201, (2S,4R)-N-((1H-pyrrolo[3,2-c]pyridin-2-yl)methyl)-1-((dibenzo[b,d]furan-2-carbonyl)glycyl)-4-fluoro-4-(methoxymethyl)pyrrolidine-2-carboxamide] | < 100 nM |
| CS(=O)(=O)[C@@H]1C[C@@H](C(=O)NCc2cc3cnccc3[nH]2)N(C(=O)CNC(=O)c2ccc3oc4ccccc4c3c2)C1 [Compound 202, (2S,4R)-N-((1H-pyrrolo[3,2-c]pyridin-2-yl)methyl)-1-((dibenzo[b,d]furan-2-carbonyl)glycyl)-4-(methylsulfonyl)pyrrolidine-2-carboxamide] | < 100 nM |
| C[C@@]12C[C@@H]1N(C(=O)CNC(=O)c1ccc3oc4ccccc4c3c1)[C@H](C(=O)NCc1cc3cnccc3[nH]1)C2 [Compound 203, (1S,3S,5S)-N-((1H-pyrrolo[3,2-c]pyridin-2-yl)methyl)-2-((dibenzo[b,d]furan-2-carbonyl)glycyl)-5-methyl-2-azabicyclo[3.1.0]hexane-3-carboxamide] | < 100 nM |
| C[C@@H](NC(=O)C1C[C@H](COCCCCCC(=O)O)CN1C(=O)CNC(=O)c1ccc2c(c1)Oc1ccccc1S2)c1cc2cnccc2[nH]1 (stereo partly drawn) [Compound 204, 6-(((3S)-5-(((R)-1-(1H-pyrrolo[3,2-c]pyridin-2-yl)ethyl)carbamoyl)-1-((phenoxathiine-3-carbonyl)glycyl)pyrrolidin-3-yl)methoxy)hexanoic acid] | < 100 nM |
| C[C@@H](NC(=O)[C@@H]1C[C@@H](OC(F)F)CN1C(=O)CNC(=O)c1ccc(Oc2ccc(F)cc2)cc1)c1cc2cnccc2s1 [Compound 205, (2S,4R)-4-(difluoromethoxy)-1-((4-(4-fluorophenoxy)benzoyl)glycyl)-N-((R)-1-(thieno[3,2-c]pyridin-2-yl)ethyl)pyrrolidine-2-carboxamide] | 100 to 1000 nM |
| C[C@@H](NC(=O)[C@@H]1CC2(CN1C(=O)CNC(=O)c1ccc3c(c1)Oc1ccccc1S3)OCCO2)c1cc2cnccc2s1 [Compound 206, (S)-7-((phenoxathiine-3-carbonyl)glycyl)-N-((R)-1-(thieno[3,2-c]pyridin-2-yl)ethyl)-1,4-dioxa-7-azaspiro[4.4]nonane-8-carboxamide] | < 100 nM |
| C[C@@H](NC(=O)[C@@H]1C[C@@H](OC(F)F)CN1C(=O)CNC(=O)c1ccc2c(c1)-c1ccccc1C2(F)F)c1cc2cnccc2s1 [Compound 207, (2S,4R)-1-((9,9-difluoro-9H-fluorene-3-carbonyl)glycyl)-4-(difluoromethoxy)-N-((R)-1-(thieno[3,2-c]pyridin-2-yl)ethyl)pyrrolidine-2-carboxamide] | > 1000 nM |
| C[C@@H](NC(=O)[C@@H]1C[C@@H](OC(F)F)CN1C(=O)CNC(=O)c1ccc2c(c1)Oc1ccccc1S2)c1cc2cnccc2s1 [Compound 208, (2S,4R)-4-(difluoromethoxy)-1-((phenoxathiine-3-carbonyl)glycyl)-N-((R)-1-(thieno[3,2-c]pyridin-2-yl)ethyl)pyrrolidine-2-carboxamide] | < 100 nM |
| C[C@@H](NC(=O)[C@@H]1C[C@@H](OC(F)F)CN1C(=O)CNC(=O)c1ccc(Oc2ccccc2)cc1)c1cc2cnccc2s1 [Compound 209, (2S,4R)-4-(difluoromethoxy)-1-((4-phenoxybenzoyl)glycyl)-N-((R)-1-(thieno[3,2-c]pyridin-2-yl)ethyl)pyrrolidine-2-carboxamide] | 100 to 1000 nM |
| O=C(NCC(=O)N1C[C@H](OC(F)F)C[C@H]1C(=O)NCc1cc2c(s1)CNCC2)c1ccc2c(c1)Oc1ccccc1S2 [Compound 210, (2S,4R)-4-(difluoromethoxy)-1-((phenoxathiine-3-carbonyl)glycyl)-N-((4,5,6,7-tetrahydrothieno[2,3-c]pyridin-2-yl)methyl)pyrrolidine-2-carboxamide] | < 100 nM |
| O=C(NCC(=O)N1CC2(C[C@H]1C(=O)NCc1cc3cnccc3[nH]1)OCCO2)c1ccc2[nH]c3ccccc3c2c1 [Compound 211, (S)-N-((1H-pyrrolo[3,2-c]pyridin-2-yl)methyl)-7-((9H-carbazole-3-carbonyl)glycyl)-1,4-dioxa-7-azaspiro[4.4]nonane-8-carboxamide] | < 100 nM |
| O=C(NCC(=O)N1CC2(C[C@H]1C(=O)NCc1cc3cnccc3[nH]1)OCCO2)c1ccc2sc3ccccc3c2c1 [Compound 212, (S)-N-((1H-pyrrolo[3,2-c]pyridin-2-yl)methyl)-7-((dibenzo[b,d]thiophene-2-carbonyl)glycyl)-1,4-dioxa-7-azaspiro[4.4]nonane-8-carboxamide] | < 100 nM |
| O=C(NCC(=O)N1CC2(C[C@H]1C(=O)NCc1cc3cnccc3[nH]1)OCCO2)c1ccc2c(c1)oc1ccccc12 [Compound 213, (S)-N-((1H-pyrrolo[3,2-c]pyridin-2-yl)methyl)-7-((dibenzo[b,d]furan-3-carbonyl)glycyl)-1,4-dioxa-7-azaspiro[4.4]nonane-8-carboxamide] | < 100 nM |
| O=C(NCC(=O)N1CC[C@H](c2ccccc2)[C@H]1C(=O)NCc1cc2cnccc2[nH]1)c1ccc2c(c1)Oc1ccccc1S2 [Compound 214, (2S,3R)-N-((1H-pyrrolo[3,2-c]pyridin-2-yl)methyl)-1-((phenoxathiine-3-carbonyl)glycyl)-3-phenylpyrrolidine-2-carboxamide] | > 1000 nM |
| CC(C)c1ccc(Oc2cccc(C(=O)NCC(=O)N3C[C@H](OC(F)F)C[C@H]3C(=O)NCc3cc4cnccc4[nH]3)c2)cc1 [Compound 215, (2S,4R)-N-((1H-pyrrolo[3,2-c]pyridin-2-yl)methyl)-4-(difluoromethoxy)-1-((3-(4-isopropylphenoxy)benzoyl)glycyl)pyrrolidine-2-carboxamide] | < 100 nM |
| C[C@@H](NC(=O)[C@@H]1C[C@](F)(Cn2ccnn2)CN1C(=O)CNC(=O)c1ccc2c(c1)Oc1ccccc1S2)c1cc2cnccc2[nH]1 [Compound 216, (2S,4R)-4-((1H-1,2,3-triazol-1-yl)methyl)-N-((R)-1-(1H-pyrrolo[3,2-c]pyridin-2-yl)ethyl)-4-fluoro-1-((phenoxathiine-3-carbonyl)glycyl)pyrrolidine-2-carboxamide] | < 100 nM |
| C[C@@H](NC(=O)[C@@H]1C[C@](F)(Cn2ccnc2)CN1C(=O)CNC(=O)c1ccc2c(c1)Oc1ccccc1S2)c1cc2cnccc2[nH]1 [Compound 217, (2S,4S)-4-((1H-imidazol-1-yl)methyl)-N-((R)-1-(1H-pyrrolo[3,2-c]pyridin-2-yl)ethyl)-4-fluoro-1-((phenoxathiine-3-carbonyl)glycyl)pyrrolidine-2-carboxamide] | < 100 nM |
| O=C(NCC(=O)N1C[C@H](OC(F)F)C[C@H]1C(=O)NCc1cc2cnccc2[nH]1)c1ccc2oc3ccccc3c2c1 [Compound 218, (2S,4R)-N-((1H-pyrrolo[3,2-c]pyridin-2-yl)methyl)-1-((dibenzo[b,d]furan-2-carbonyl)glycyl)-4-(difluoromethoxy)pyrrolidine-2-carboxamide] | < 100 nM |
| C[C@@H](NC(=O)[C@@H]1C[C@@H](OC(F)F)CN1C(=O)CNC(=O)c1ccc2oc3ccccc3c2c1)c1cc2cnccc2[nH]1 [Compound 220, (2S,4R)-N-((R)-1-(1H-pyrrolo[3,2-c]pyridin-2-yl)ethyl)-1-((dibenzo[b,d]furan-2-carbonyl)glycyl)-4-(difluoromethoxy)pyrrolidine-2-carboxamide] | < 100 nM |
